Source: US20250312462A1, “PAK1 DEGRADERS AND METHODS OF USE THEREOF” (INSTITUTE FOR CANCER RESEARCH D/B/A THE RESEARCH INSTITUTE …, priority 2022, published 2025)

Key:
DAPK1 = DAPK1 (Homo sapiens, UniProt P53355); test: KINOMEscan; details: read-out: Percent Control
Method: (§1) The kinase engagement assay (KINOMEscan®) was performed by DiscoverX assessing binding abilities toward a set of kinases.

ADCK3 = ADCK3 (Homo sapiens, UniProt Q8NI60); test: KINOMEscan; details: read-out: Percent Control
Method: as §1

PAK1 = PAK1 (Homo sapiens, UniProt Q13153); test: Global multiplexed mass spectrometry proteomics in MOLT4 cells; format: cell-based; parameters: endogenous in cells; host or cells: MOLT4; details: 1 μM, 5 hours
Chain of PAK1 (Q13153 whole entry): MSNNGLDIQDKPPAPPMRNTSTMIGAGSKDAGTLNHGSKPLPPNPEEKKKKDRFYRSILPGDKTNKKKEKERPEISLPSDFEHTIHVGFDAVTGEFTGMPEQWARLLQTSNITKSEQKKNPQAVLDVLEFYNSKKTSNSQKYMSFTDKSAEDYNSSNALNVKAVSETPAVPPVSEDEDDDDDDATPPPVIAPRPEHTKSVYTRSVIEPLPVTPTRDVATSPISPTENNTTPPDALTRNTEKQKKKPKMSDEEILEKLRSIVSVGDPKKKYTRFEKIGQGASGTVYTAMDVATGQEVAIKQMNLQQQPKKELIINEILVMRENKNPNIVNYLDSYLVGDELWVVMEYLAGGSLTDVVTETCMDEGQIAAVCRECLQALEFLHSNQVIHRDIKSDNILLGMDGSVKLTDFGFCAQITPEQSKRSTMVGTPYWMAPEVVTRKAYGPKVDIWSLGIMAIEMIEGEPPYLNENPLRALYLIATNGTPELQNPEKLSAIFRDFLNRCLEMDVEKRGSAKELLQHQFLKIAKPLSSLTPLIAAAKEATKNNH
Method: MOLT4 cells were treated with DMSO in biological triplicate and 1 μM BJG-05-039 for 5 hours and harvested by centrifugation. Cell lysis was performed by the addition of Urea buffer (8 M Urea, 50 mM NaCl, 50 mM 4-(2-hydroxyethyl)-1-piperazineethanesulfonic acid (EPPS) pH 8.5, Protease and Phosphatase inhibitors) followed by manual homogenization by 20 passes through a 21-gauge (1.25 in. long) needle. Lysate was clarified by centrifugation at 4° C. and protein quantified using bradford (Bio-Rad) assay. 100 μg of protein for each sample was reduced, alkylated and precipitated using methanol/chloroform as described (Donovan, et al. (2018) Elife 7: e38430). The resulting precipitated protein was resuspended in 4 M Urea, 50 mM HEPES pH 7.4, buffer for solubilization, followed by dilution to 1 M urea with the addition of 200 mM EPPS, pH 8. Proteins were digested for 12 hours at room temperature with LysC (1:50 ratio), followed by dilution to 0.5 M urea and a second digestion step was performed by addition of trypsin (1:50 ratio) for 6 hours at 37° C. […]
Quantification was performed using a MS3-based TMT method as described (Donovan et al. (2020) Cell 183(6):1714-1731). […]
Proteome Discoverer 2.4 (Thermo Fisher Scientific) was used for .RAW file processing and controlling peptide and protein level false discovery rates, assembling proteins from peptides, and protein quantification from peptides. […]

CSNK1G3 = CSNK1G3 (Homo sapiens, UniProt Q9Y6M4); test: KINOMEscan; details: read-out: Percent Control
Method: as §1

INSRR = INSRR (Homo sapiens, UniProt P14616); test: KINOMEscan; details: read-out: Percent Control
Chain of INSRR (P14616 27-1297): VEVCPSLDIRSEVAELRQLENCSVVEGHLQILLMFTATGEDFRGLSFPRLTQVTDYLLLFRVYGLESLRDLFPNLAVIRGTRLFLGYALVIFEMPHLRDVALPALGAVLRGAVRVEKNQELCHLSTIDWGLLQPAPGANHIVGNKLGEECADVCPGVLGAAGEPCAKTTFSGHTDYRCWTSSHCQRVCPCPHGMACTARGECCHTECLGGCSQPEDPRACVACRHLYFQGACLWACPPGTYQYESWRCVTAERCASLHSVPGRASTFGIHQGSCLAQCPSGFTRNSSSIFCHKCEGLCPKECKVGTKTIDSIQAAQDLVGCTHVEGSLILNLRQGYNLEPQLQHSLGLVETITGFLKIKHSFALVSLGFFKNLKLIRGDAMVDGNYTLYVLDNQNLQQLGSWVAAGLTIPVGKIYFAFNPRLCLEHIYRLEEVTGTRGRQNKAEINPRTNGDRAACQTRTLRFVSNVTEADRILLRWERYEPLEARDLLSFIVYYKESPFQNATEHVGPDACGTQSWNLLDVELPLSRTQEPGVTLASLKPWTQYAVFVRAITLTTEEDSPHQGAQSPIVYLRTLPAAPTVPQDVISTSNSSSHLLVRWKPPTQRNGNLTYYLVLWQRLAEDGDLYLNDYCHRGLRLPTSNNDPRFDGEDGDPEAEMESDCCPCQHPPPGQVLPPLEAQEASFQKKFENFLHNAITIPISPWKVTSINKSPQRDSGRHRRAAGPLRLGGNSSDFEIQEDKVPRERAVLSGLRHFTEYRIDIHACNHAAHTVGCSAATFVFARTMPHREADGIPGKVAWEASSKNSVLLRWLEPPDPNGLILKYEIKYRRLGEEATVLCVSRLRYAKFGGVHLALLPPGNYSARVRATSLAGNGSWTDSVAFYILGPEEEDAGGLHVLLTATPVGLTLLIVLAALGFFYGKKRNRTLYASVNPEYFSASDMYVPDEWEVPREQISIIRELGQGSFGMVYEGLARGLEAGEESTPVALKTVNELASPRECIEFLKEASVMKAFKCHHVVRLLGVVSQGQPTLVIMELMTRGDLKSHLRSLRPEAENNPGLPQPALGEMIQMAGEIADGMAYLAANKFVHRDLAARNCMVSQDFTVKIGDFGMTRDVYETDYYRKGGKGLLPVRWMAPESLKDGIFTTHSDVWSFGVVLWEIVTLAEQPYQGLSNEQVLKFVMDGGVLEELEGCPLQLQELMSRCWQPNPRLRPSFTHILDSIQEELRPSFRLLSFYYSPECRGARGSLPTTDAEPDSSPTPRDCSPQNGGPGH
Method: as §1

DAPK2 = DAPK2 (Homo sapiens, UniProt Q9UIK4); test: KINOMEscan; details: read-out: Percent Control
Method: as §1

p38-gamma = p38-gamma (Homo sapiens, UniProt P53778); test: KINOMEscan; details: read-out: Percent Control
Chain of p38-gamma (P53778 whole entry): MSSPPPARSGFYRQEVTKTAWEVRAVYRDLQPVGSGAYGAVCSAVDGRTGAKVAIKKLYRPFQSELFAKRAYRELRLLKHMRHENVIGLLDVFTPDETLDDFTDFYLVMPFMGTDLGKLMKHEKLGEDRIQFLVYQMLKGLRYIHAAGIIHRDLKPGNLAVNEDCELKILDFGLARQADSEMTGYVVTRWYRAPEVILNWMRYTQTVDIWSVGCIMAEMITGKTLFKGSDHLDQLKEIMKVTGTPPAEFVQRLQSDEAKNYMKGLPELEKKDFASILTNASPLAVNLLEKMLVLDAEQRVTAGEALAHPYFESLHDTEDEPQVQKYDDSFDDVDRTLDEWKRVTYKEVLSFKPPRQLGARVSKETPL
Method: as §1

[1] = target: RSK3(Kin.Dom.1-N-terminal) (Homo sapiens, UniProt Q15349); test: KINOMEscan; details: read-out: Percent Control
Chain of RSK3(Kin.Dom.1-N-terminal) (Q15349 59-318 limits assumed): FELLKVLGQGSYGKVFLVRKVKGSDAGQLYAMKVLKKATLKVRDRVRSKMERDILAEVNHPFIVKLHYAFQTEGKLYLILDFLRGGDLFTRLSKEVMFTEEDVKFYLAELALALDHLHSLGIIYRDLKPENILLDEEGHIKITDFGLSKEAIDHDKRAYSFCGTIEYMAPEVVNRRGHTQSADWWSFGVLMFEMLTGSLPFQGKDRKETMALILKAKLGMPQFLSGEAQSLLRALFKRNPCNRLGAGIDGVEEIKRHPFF
Method: as §1

[2] = target: ABL1(Q252H)-nonphosphorylated (Homo sapiens, UniProt P00519, Q252H); test: KINOMEscan; details: read-out: Percent Control
Method: as §1

LCK = LCK (Homo sapiens, UniProt P06239); test: KINOMEscan; details: read-out: Percent Control
Chain of LCK (P06239 whole entry): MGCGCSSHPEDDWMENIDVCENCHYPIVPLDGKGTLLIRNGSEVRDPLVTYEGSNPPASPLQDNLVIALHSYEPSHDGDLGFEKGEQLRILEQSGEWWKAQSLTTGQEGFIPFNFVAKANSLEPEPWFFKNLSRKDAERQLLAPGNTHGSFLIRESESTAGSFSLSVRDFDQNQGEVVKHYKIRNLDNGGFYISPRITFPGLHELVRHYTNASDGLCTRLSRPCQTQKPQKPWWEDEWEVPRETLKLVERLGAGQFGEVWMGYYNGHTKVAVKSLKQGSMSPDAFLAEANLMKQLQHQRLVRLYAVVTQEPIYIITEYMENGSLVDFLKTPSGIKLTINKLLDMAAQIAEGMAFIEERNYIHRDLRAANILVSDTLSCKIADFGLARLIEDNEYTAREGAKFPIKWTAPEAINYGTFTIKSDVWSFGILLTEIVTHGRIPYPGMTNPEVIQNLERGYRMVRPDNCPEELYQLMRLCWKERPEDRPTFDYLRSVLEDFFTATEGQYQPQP
Method: as §1

RIPK2 = RIPK2 (Homo sapiens, UniProt O43353); test: KINOMEscan; details: read-out: Percent Control
Method: as §1

FGR = FGR (Homo sapiens, UniProt P09769); test: KINOMEscan; details: read-out: Percent Control
Method: as §1

ALK = ALK (Homo sapiens, UniProt Q9UM73); test: KINOMEscan; details: read-out: Percent Control
Method: as §1

DAPK3 = DAPK3 (Homo sapiens, UniProt O43293); test: KINOMEscan; details: read-out: Percent Control
Method: as §1

PIM2 = PIM2 (Homo sapiens, UniProt Q9P1W9); test: KINOMEscan; details: read-out: Percent Control
Method: as §1

CLK3 = CLK3 (Homo sapiens, UniProt P49761); test: KINOMEscan; details: read-out: Percent Control
Chain of CLK3 (P49761 whole entry): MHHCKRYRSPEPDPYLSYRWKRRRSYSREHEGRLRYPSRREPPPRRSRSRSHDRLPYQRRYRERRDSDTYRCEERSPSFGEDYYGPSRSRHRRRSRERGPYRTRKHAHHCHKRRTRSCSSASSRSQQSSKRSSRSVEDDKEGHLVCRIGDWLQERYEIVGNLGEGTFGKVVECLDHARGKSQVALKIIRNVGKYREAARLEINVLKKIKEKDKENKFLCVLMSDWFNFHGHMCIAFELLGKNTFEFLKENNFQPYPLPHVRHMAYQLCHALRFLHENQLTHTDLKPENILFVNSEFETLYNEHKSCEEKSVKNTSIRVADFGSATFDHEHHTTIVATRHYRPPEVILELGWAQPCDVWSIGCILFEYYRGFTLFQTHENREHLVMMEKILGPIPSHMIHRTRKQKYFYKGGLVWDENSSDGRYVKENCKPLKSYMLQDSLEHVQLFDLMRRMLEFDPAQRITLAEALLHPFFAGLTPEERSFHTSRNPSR
Method: as §1

EGFR = EGFR (Homo sapiens, UniProt P00533); test: KINOMEscan; details: read-out: Percent Control
Method: as §1

Chain of DAPK1 (P53355 whole entry): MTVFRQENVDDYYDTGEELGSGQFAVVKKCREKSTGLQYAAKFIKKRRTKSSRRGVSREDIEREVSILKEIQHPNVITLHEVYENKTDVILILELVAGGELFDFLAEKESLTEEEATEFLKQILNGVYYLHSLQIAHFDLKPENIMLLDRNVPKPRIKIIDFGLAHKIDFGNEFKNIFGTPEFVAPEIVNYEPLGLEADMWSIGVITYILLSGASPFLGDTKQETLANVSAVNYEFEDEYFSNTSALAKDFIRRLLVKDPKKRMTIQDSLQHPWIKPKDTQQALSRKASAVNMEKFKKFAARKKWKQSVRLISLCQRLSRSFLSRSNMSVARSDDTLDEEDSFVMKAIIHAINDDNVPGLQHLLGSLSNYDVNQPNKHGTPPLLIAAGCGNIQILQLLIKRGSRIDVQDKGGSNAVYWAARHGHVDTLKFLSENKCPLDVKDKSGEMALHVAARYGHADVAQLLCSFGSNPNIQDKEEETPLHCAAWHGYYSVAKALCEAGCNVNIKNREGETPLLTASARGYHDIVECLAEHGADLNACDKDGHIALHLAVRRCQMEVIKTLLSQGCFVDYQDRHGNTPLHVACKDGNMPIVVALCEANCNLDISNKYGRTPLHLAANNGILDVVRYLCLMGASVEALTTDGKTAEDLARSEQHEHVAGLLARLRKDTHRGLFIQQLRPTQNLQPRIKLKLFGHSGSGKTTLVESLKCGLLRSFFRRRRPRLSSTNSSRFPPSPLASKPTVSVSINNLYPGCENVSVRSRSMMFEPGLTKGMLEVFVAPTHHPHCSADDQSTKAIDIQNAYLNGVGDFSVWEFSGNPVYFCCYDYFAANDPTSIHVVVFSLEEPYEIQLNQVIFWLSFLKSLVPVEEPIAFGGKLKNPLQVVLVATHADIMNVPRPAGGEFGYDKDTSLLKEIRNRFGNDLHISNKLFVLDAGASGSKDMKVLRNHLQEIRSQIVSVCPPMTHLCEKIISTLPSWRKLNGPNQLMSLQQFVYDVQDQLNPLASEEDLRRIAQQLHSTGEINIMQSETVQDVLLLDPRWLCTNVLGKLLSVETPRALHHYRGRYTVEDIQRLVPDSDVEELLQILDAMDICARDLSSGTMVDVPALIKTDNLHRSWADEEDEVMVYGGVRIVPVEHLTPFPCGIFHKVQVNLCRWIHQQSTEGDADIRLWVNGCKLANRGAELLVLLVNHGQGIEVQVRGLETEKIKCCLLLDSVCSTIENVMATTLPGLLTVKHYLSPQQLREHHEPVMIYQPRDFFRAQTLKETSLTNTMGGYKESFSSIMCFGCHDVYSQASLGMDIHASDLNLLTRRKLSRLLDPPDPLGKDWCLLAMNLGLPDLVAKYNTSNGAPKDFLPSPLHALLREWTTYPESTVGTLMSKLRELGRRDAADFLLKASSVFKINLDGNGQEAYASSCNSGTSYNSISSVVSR

## O=C1CCC(N2C(=O)c3cccc(NCCCCCCCCNC(=O)N4CC[C@H](NC5=Nc6cc(F)ccc6N(CC(F)F)c6ccc(Cl)cc65)C4)c3C2=O)C(=O)N1 (stereo partly drawn) [BJG-05-039, (3S)-3-((2-Chloro-5-(2,2-difluoroethyl)-8-fluoro-5H-dibenzo[b,e][1,4]diazepin-11-yl)amino)-N-(8-((2-(2,6-dioxopiperidin-3-yl)-1,3-dioxoisoindolin-4-yl)amino)octyl)pyrrolidine-1-carboxamide]
DAPK1
  remaining binding at 10 µM: 47%
ADCK3
  remaining binding at 10 µM: 83%
PAK1
  Change in protein abundance: significant downregulation of this kinase was not apparent
CSNK1G3
  remaining binding at 10 µM: 63%
INSRR
  remaining binding at 10 µM: 65%
DAPK2
  remaining binding at 10 µM: 41%
p38-gamma
  remaining binding at 10 µM: 99%
[1]
  remaining binding at 10 µM: 90%
[2]
  remaining binding at 10 µM: 87%
LCK
  remaining binding at 10 µM: 91%
RIPK2
  remaining binding at 10 µM: 67%
FGR
  remaining binding at 10 µM: 82%
ALK
  remaining binding at 10 µM: 97%
DAPK3
  remaining binding at 10 µM: 40%
PIM2
  remaining binding at 10 µM: 82%
CLK3
  remaining binding at 10 µM: 62%
EGFR
  remaining binding at 10 µM: 74%
